Structures are written as SMILES.

The values that follow come from the supplement of paper PMC7224384.

Test [1] concerns MDA-MB-453. As to the kind of experiment: drug sensitivity score (DSS), single agent (DSS (weighted AUC score)); higher = more sensitive (stronger viability decrease); extreme values may be limits of the assay. The conditions noted are these: BLU9931 0 nM; 72 h. The essentials: (§1)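 Each 384-well plate held compounds from the FIMM Oncology set, predispensed in singlicate at five 10-fold dilutions spanning a 10,000-fold range, and each well then received 2000 MDA-MB-453 cells in medium with or without an FGFR4 inhibitor at 100 nM final. Plates stayed at 37 °C, 5% CO2 for 72 h, after which cellular ATP was measured with CellTiterGlo 2.0. Readings were converted per plate into percent viability against control wells, and the drug sensitivity score was taken as a weighted area under a four-parameter logistic fit.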

Test [2] deals with MDA-MB-453. The experiment in a line: drug sensitivity score (DSS), in combination with BLU9931 (DSS (weighted AUC score)); higher = more sensitive (stronger viability decrease); extreme values may be limits of the assay. As to conditions: BLU9931 100 nM; 72 h. The essentials: as §1

As to `COc1ccc(COc2cc3oc(=O)c4cc(C(C)O)ccc4c3cc2OC)cc1` (stereo unspecified) [Palomid-529], the drug sensitivity score in the test with MDA-MB-453 [1] is 2; in the test on MDA-MB-453 [2] it was 0.

Regarding `CC[C@@H]1CN(C(=O)NCC(F)(F)F)C[C@@H]1c1cnc2cnc3[nH]ccc3n12` [Upadacitinib], the figures for the drug sensitivity score in the test with MDA-MB-453 [1] and with MDA-MB-453 [2] were 0.9 and 0, respectively.

Consider `C=CC(=O)Nc1cccc(Oc2nc(Nc3ccc(N4CCN(C)CC4)cc3)nc3ccsc23)c1` [Olmutinib], for which the drug sensitivity score in the test with MDA-MB-453 [1] and with MDA-MB-453 [2] was 0.7 each time.

On to `CCc1cncnc1N1CCN(Cc2nc3ccc(C(F)(F)F)cc3[nH]2)CC1`, for which the drug sensitivity score in the test with MDA-MB-453 [1] and with MDA-MB-453 [2] was 0.6 each time.

As to `CCN1CCN(Cc2ccc(Nc3ncc(F)c(-c4cc(F)c5nc(C)n(C(C)C)c5c4)n3)nc2)CC1` [Abemaciclib], the drug sensitivity score came to 4.1 with MDA-MB-453 [1] and 7.8 with MDA-MB-453 [2].

Consider `N#Cc1ccc(COC[C@H]2O[C@@H](n3c(NCc4ccc(Cl)c(Cl)c4)nc4c(N)ncnc43)[C@H](O)[C@@H]2O)cc1`, for which the drug sensitivity score in the test with MDA-MB-453 [1] was 4.9; in the test on MDA-MB-453 [2], 4.2.

In the case of `CNC(=O)c1ccccc1Nc1cc(Nc2ccc(N3CCOCC3)cc2OC)ncc1C(F)(F)F` [VS-4718], the drug sensitivity score was determined as 1.9 with MDA-MB-453 [1] and 0 with MDA-MB-453 [2].

Consider `COc1cc([C@@H]2c3cc4c(cc3[C@@H](O[C@@H]3O[C@@H]5CO[C@@H](C)O[C@H]5[C@H](O)[C@H]3O)[C@H]3COC(=O)[C@H]23)OCO4)cc(OC)c1O` [Etoposide], for which the values for the drug sensitivity score in the test with MDA-MB-453 [1] and in the test with MDA-MB-453 [2] were 2.8 and 2.9, respectively.

Consider `CN(C(=O)c1ccc(F)cc1C(F)(F)F)C1CCN(c2nnc(-c3ccnn3C)c3ccccc23)CC1` [Taladegib], for which the drug sensitivity score with MDA-MB-453 [1] was determined as 1.6; in the test on MDA-MB-453 [2], 1.1.

For `Cc1c(-c2ccc(N3CCc4cccc(C(=O)Nc5nc6ccccc6s5)c4C3)nc2C(=O)O)cnn1CC12CC3CC(CC(C3)C1)C2`, the drug sensitivity score with MDA-MB-453 [1] came out at 1.4; in the test on MDA-MB-453 [2] it was 5.4.

For `CC(=O)N(O)CCCCCNC(=O)CCC(=O)N(O)CCCCCNC(=O)CCC(=O)N(O)CCCCCN` [Deferoxamine], the drug sensitivity score with MDA-MB-453 [1] was determined as 2.3; in the test with MDA-MB-453 [2], 4.3.

As to `O=C1c2c(O)ccc(O)c2C(=O)c2c(NCCNCCO)ccc(NCCNCCO)c21` [Mitoxantrone], the drug sensitivity score worked out at 4.5 with MDA-MB-453 [1] and 5.1 in the test with MDA-MB-453 [2].

Turning to `Cc1ncc(Cl)cc1NCc1ccc(C(=O)N[C@@H](CC2CCCC2)C(=O)NC2CC2)s1`, the drug sensitivity score in the test on MDA-MB-453 [1] was determined as 0; in the test with MDA-MB-453 [2], 0.5.

With `NCCNc1ccc(NCCN)c2c1C(=O)c1ccncc1C2=O` [Pixantrone], the drug sensitivity score with MDA-MB-453 [1] and in the test on MDA-MB-453 [2] was 1 throughout.

Consider `FC(F)(F)c1ccc(/C=C/c2nc(COc3ccc(CCCCn4ccnn4)cc3)co2)cc1` [Mubritinib], for which the drug sensitivity score stood at 7.8 in the test on MDA-MB-453 [1] and 4 in the test on MDA-MB-453 [2].

In the case of `CC[C@@]1(O)C(=O)OCc2c1cc1n(c2=O)Cc2cc3c(CN(C)C)c(O)ccc3nc2-1` [Topotecan], the drug sensitivity score came out at 14.7 with MDA-MB-453 [1] and 12.5 in the test on MDA-MB-453 [2].

Regarding `C=CC(=O)N1CCC(Oc2cc3c(Nc4ccc(Cl)c(Cl)c4F)ncnc3cc2OC)CC1` [Poziotinib], the drug sensitivity score in the test with MDA-MB-453 [1] came out at 19.1; with MDA-MB-453 [2], 25.1.

Turning to `CCN(CC)Cc1ccc2cc(COC(=O)Nc3ccc(C(=O)NO)cc3)ccc2c1` [Givinostat], the drug sensitivity score stood at 11 with MDA-MB-453 [1] and 10.3 in the test on MDA-MB-453 [2].

On to `Cc1c(Cn2c(C)nc3c(C(=O)O)cc(N4CCOCC4)cc32)cccc1C(F)(F)F`, for which the drug sensitivity score in the test with MDA-MB-453 [1] and in the test on MDA-MB-453 [2] was 0 each time.

With `C[C@]12CC[C@@H]3c4ccc(O)cc4C[C@@H](CCCCCCCCC[S+]([O-])CCCC(F)(F)C(F)(F)F)[C@H]3[C@@H]1CC[C@@H]2O` (stereo partly specified) [Fulvestrant], the drug sensitivity score with MDA-MB-453 [1] and with MDA-MB-453 [2] was 0 each time.

Take `Clc1ccc(Nc2nnc(Cc3ccncc3)c3ccccc23)cc1` [Vatalanib]: the drug sensitivity score in the test on MDA-MB-453 [1] was determined as 0.8; in the test with MDA-MB-453 [2], 0.3.

Regarding `CNc1ncc2cc(-c3cc(NC(=O)NCCC(C)(C)C)c(F)cc3C)c(C)nc2n1`, the drug sensitivity score was determined as 6.3 in the test on MDA-MB-453 [1] and 3.8 in the test with MDA-MB-453 [2].

As for `COc1cc(N2CCC(N3CCN(C)CC3)CC2)ccc1Nc1ncnc(Nc2ccccc2S(=O)(=O)C(C)C)n1` [ASP3026], the results for the drug sensitivity score with MDA-MB-453 [1] and with MDA-MB-453 [2] were 0.8 and 0.3, respectively.

`O=C(O)CNC(=O)c1c(O)c2ccccc2n(Cc2ccccc2)c1=O` [IOX-2]: the drug sensitivity score in the test on MDA-MB-453 [1] and with MDA-MB-453 [2] was 0 each time.

Consider `O=C(Nc1cccc(Nc2ncc(Br)c(NCCc3cnc[nH]3)n2)c1)N1CCCC1` [BX-912], for which the drug sensitivity score with MDA-MB-453 [1] worked out at 4.5; in the test with MDA-MB-453 [2], 3.8.

Consider `NCC(=O)Nc1ccc(-n2nc(C(F)(F)F)cc2-c2ccc3c(ccc4ccccc43)c2)cc1`, for which the drug sensitivity score was 2.1 in the test with MDA-MB-453 [1] and 0 in the test with MDA-MB-453 [2].

Take `CNC(=O)c1cc(Oc2ccc(NC(=O)Nc3ccc(Cl)c(C(F)(F)F)c3)c(F)c2)ccn1` [Regorafenib]: the drug sensitivity score in the test on MDA-MB-453 [1] was determined as 3; in the test with MDA-MB-453 [2] it was 1.5.

With `C[C@H]1C[C@@H]2[C@H]([C@@H](O)C[C@@]3(C)[C@H]2CC[C@]3(O)C(=O)CO)[C@@]2(C)C=CC(=O)C=C12` [Methylprednisolone], the figures for the drug sensitivity score in the test on MDA-MB-453 [1] and in the test on MDA-MB-453 [2] were 5.2 and 0, respectively.

For the compound `CC(C)c1c(C(=O)Nc2ccccc2)c(-c2ccccc2)c(-c2ccc(F)cc2)n1CC[C@@H](O)C[C@@H](O)CC(=O)O` [Atorvastatin], the drug sensitivity score in the test with MDA-MB-453 [1] and in the test on MDA-MB-453 [2] was 0 throughout.

With `Cn1ncc(Cl)c1-c1cc(C(=O)N[C@H](CN)Cc2ccc(F)c(F)c2)oc1Cl` [Uprosertib], the drug sensitivity score amounted to 7.6 with MDA-MB-453 [1] and 11.2 in the test with MDA-MB-453 [2].

With `C[C@@H]1CN(Cc2ccc(F)cc2)[C@@H](C)CN1C(=O)c1cc2c(C(=O)C(=O)N(C)C)cn(C)c2cc1Cl` [Talmapimod], the drug sensitivity score in the test with MDA-MB-453 [1] and in the test with MDA-MB-453 [2] was 0 in each case.

Consider `CCn1c(=O)c(-c2ccc(Cl)cc2Cl)cc2cnc(Nc3ccc(N4CCNCC4)c(F)c3)nc21` [FRAX486], for which the drug sensitivity score stood at 3.9 in the test with MDA-MB-453 [1] and 1.1 in the test with MDA-MB-453 [2].

Take `CN[C@@H](C)C(=O)N[C@H]1CN(C(=O)CC(C)C)CC[C@H]2CC[C@@H](C(=O)NC(c3ccccc3)c3ccccc3)N2C1=O` [AT-406]: the drug sensitivity score with MDA-MB-453 [1] and in the test with MDA-MB-453 [2] was 5.1 each time.

`CN1CCc2c(c3ccccc3n2Cc2ccc(C(=O)NO)cc2)C1` [Tubastatin A]: the drug sensitivity score in the test with MDA-MB-453 [1] is 4.1; in the test with MDA-MB-453 [2] it was 2.1.

`C[C@]1(O)C[C@@H](c2nc(-c3ccc4ccc(-c5ccccc5)nc4c3)c3c(N)nccn32)C1` [Linsitinib]: the drug sensitivity score came out at 3.6 in the test on MDA-MB-453 [1] and 1 in the test on MDA-MB-453 [2].

Take `CC[C@@H]1C(=O)N(C)c2cnc(Nc3ccc(C(=O)NC4CCN(C)CC4)cc3OC)nc2N1C1CCCC1` [BI 2536]: the drug sensitivity score in the test with MDA-MB-453 [1] stood at 10.4; in the test with MDA-MB-453 [2], 9.2.

As to `Cc1ccc(F)c(NC(=O)Nc2ccc(-c3cccc4[nH]nc(N)c34)cc2)c1` [Linifanib], the drug sensitivity score with MDA-MB-453 [1] and in the test on MDA-MB-453 [2] was 0 in each case.

Turning to `NC(=S)N/N=C/c1ncccc1N` [Triapine], the drug sensitivity score in the test with MDA-MB-453 [1] stood at 0.1; with MDA-MB-453 [2], 1.3.

Take `CNC(=O)c1ccccc1Sc1ccc2c(/C=C/c3ccccn3)n[nH]c2c1` [Axitinib]: the drug sensitivity score in the test with MDA-MB-453 [1] was found to be 2.2; in the test on MDA-MB-453 [2], 0.3.

As for `CCOc1ccccc1-n1c(C(C)N2CCN(C(=O)COc3ccc(Cl)cc3)CC2)nc2ccccc2c1=O` (stereo unspecified) [Erastin], the drug sensitivity score in the test on MDA-MB-453 [1] stood at 4.1; in the test with MDA-MB-453 [2] it was 5.6.

For the compound `Nc1nc2cc(-c3ccc4ncc(C(=O)N5CCOCC5)n4c3)ccc2o1` [Serabelisib], the drug sensitivity score with MDA-MB-453 [1] was determined as 7.8; with MDA-MB-453 [2] it was 9.8.

In the case of `N#Cc1ccnc(N2C(=O)CC[C@H]2C(=O)N(c2cncc(F)c2)[C@H](C(=O)NC2CC(F)(F)C2)c2ccccc2Cl)c1` [Ivosidenib], the drug sensitivity score in the test on MDA-MB-453 [1] and in the test with MDA-MB-453 [2] was 0 in each case.

On to `CCS(=O)(=O)N1CCN(c2ccc(Nc3ncc(C(N)=O)c(NC4CC4)n3)cc2)CC1` [Cerdulatinib], for which the drug sensitivity score with MDA-MB-453 [1] was 4.4; with MDA-MB-453 [2] it was 0.3.

For `CO[C@H]1C[C@@H]2CC[C@@H](C)[C@@](O)(O2)C(=O)C(=O)N2CCCC[C@H]2C(=O)O[C@H]([C@H](C)C[C@@H]2CC[C@@H](OC(=O)C(C)(CO)CO)[C@H](OC)C2)CC(=O)[C@H](C)/C=C(\C)[C@@H](O)[C@@H](OC)C(=O)[C@H](C)C[C@H](C)/C=C/C=C/C=C/1C` [Temsirolimus], the values for the drug sensitivity score in the test on MDA-MB-453 [1] and in the test with MDA-MB-453 [2] were 10.3 and 14.8, respectively.

As to `N[C@@H]1CCCN(c2c(/C=C3\SC(=O)NC3=O)cccc2-c2ccccc2)C1` [AZD1208], the drug sensitivity score with MDA-MB-453 [1] came to 0.3; in the test with MDA-MB-453 [2] it was 0.1.

Regarding `CCn1c(C(=O)N(C2CC2)C2CC2)cc2c3c(ncn3C)c(Nc3cc(C)n(C)n3)nc21`, the drug sensitivity score in the test with MDA-MB-453 [1] and with MDA-MB-453 [2] was 0 each time.

As for `CC(C)(C)c1cc(NC(=O)Nc2ccc(-c3cn4c(n3)sc3cc(OCCN5CCOCC5)ccc34)cc2)no1` [Quizartinib], the drug sensitivity score in the test on MDA-MB-453 [1] stood at 1; with MDA-MB-453 [2], 0.4.

Regarding `C[C@@H]1CN(C(=O)c2ccc(NC(=O)c3cc(O[C@H](C)c4c(Cl)ccc(F)c4Cl)c(N)nn3)cc2)C[C@H](C)N1` [Ensartinib], the drug sensitivity score in the test on MDA-MB-453 [1] and in the test with MDA-MB-453 [2] was 0 each time.
